From patent publication US20120178672A1, “Compositions and Methods for Sparing Muscle in Renal Insufficiency and During Hemodialysis” (priority 2009, published 2012)

Test system: subjects
Experiment: Rate of urea production by tracer technique after ingestion of EAAs following resistance exercise
Type: in vivo
Settings: infusion, same tracer methodology, same time interval
Method: Acute changes in the rate of urea production were measured using a tracer technique known to those of skill in the art. […] The reason for the lack of an increase in urea production is believed to be the reutilization of non-essential amino acids for muscle protein synthesis rather than transport to the liver for degradation and incorporation of the nitrogen into urea. This is reflected by the steady drop in the concentration of alanine in the blood, as depicted in the chart of FIG. 2B. Thus, the EAA blend greatly stimulates net muscle protein synthesis without increasing blood urea concentration. This aspect of the disclosed composition is of potentially great advantage to CKD patients, as the provision of intact protein alone increases blood urea while having minimal effect on muscle protein net balance.

C[C@H](N)C(=O)O [alanine]
Urea production: stimulated urea significantly

NC(=O)CC[C@H](N)C(=O)O [glutamine]
Urea production: stimulated urea significantly
